Here are results for 36 compounds from patent US11046697B2, “Compounds and compositions useful for treating disorders related to NTRK” (BLUEPRINT MEDICINES CORPORATION, priority 2015, dated 2021).

Broadly, the IC50 is the concentration that gives 50% inhibition.

One test addresses T1, wild type NTRK1 enzyme (Homo sapiens, UniProt P04629).
T1 construct: purchased BPS Bioscience 40280
Kind of test: NTRK1 Wild Type Assay at 1 mM ATP. Particulars: 1 mM ATP; read-out: Enz NTRK1 IC50. The format is biochemical. Here is the method: NTRK1 Wild Type Assay at 1 mM ATP
The reaction was stopped by the addition of 70 μL of Stop buffer (100 mM HEPES pH 7.5, 0.015% Brij 35, 35 mM EDTA and 0.2% of Coating Reagent 3 (Caliper Lifesciences)). The plate was then read on a Caliper EZReader 2 (protocol settings: −1.7 psi, upstream voltage −500, downstream voltage −3000, post sample sip 35s).

In test [1] the test system is KM12 wild type colon carcinoma cell line harboring the TPM3-NTRK1 fusion protein. In words: NTRK wild type cellular assay (CellTiter-Glo growth inhibition). The class given is cell-based. Particulars: 72 hr, CellTiter-Glo, read-out: KM12 (WT) IC50. How it is done: (§1) NTRK Wild Type and G595R Mutant Cellular Assays Protocol
(§2) KM12 wild type colon carcinoma cell line harboring the TPM3-NTRK1 fusion protein was obtained from the National Cancer Institute (NCI). This line has been previously shown to be dependent upon the NTRK activity derived from the NTRK fusion protein for growth and survival. […] Cells were first plated in 384-well plates at 1000 cells/well in complete media (10% FBS and 1% pen/strep) and incubated overnight at 37° C. Cells were then dosed with test articles at varying concentrations using the Bravo liquid handling system. […] Each compound was run in duplicate per plate. […] 72 hr after dosing, assay plates were developed using CellTiter-Glo (Promega) and resultant luminescence was read on the Envision plate reader. IC50 determinations were calculated using a 4-parameter curve fitting algorithm
(In ATP-based viability assays light output follows the ATP content of the culture.)

The subject of test [2] is KM12 Cliff (G595R) cell line. Kind of test: NTRK G595R mutant cellular assay (CellTiter-Glo growth inhibition). To be noted: 72 hr, CellTiter-Glo. The format is cell-based. Here is the method:
as §1, §2

Where two headings read alike, the source gives them in different places.

T1 sequence (P04629 440-796 limits assumed): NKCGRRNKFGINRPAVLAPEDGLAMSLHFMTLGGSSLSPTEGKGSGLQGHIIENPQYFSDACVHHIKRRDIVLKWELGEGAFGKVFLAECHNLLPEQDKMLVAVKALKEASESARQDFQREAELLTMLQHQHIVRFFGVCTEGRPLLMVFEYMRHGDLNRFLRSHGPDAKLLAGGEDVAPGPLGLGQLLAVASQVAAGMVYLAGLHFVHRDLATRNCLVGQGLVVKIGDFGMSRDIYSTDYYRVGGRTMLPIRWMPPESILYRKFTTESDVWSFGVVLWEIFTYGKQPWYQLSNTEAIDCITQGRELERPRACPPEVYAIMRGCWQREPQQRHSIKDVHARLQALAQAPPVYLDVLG

Take `O=C(c1n[nH]c2ncnc(N[C@H]3[C@H](O)[C@H](O)[C@@H]4C[C@@H]43)c12)N1C[C@@H](F)C[C@@H]1c1cccc(F)c1` [Compound 122]: the IC50 on wild type NTRK1 enzyme was less than 0.01 µM; in test [1] (Homo sapiens, KM12, 72 h) it was less than 0.01 µM; in test [2] (Homo sapiens, KM12, 72 h), less than 0.01 µM.
For the compound `O=C(c1n[nH]c2ncnc(N[C@@H]3CC[C@@H](O)[C@H]3O)c12)N1C[C@@H](F)C[C@@H]1c1cc(F)cc(Cl)c1` [Compound 127], the IC50 was less than 0.01 µM on wild type NTRK1 enzyme; less than 0.01 µM in test [1] (Homo sapiens, KM12, 72 h); less than 0.01 µM in test [2] (Homo sapiens, KM12, 72 h).
Consider `N#Cc1cc(F)cc([C@H]2C[C@H](F)CN2C(=O)c2n[nH]c3ncnc(N[C@H]4[C@H](O)[C@H](O)[C@@H]5C[C@@H]54)c23)c1` [Compound 129], for which the IC50 was less than 0.01 µM at wild type NTRK1 enzyme; 0.01 to 0.1 µM in test [1] (Homo sapiens, KM12, 72 h); 0.01 to 0.1 µM in test [2] (Homo sapiens, KM12, 72 h).
Regarding `O=C(c1n[nH]c2ncnc(N[C@@H]3CCC[C@@H](O)[C@H]3O)c12)N1C[C@@H](F)C[C@@H]1c1cc(F)cc(Cl)c1` [Compound 130], the half-inhibitory concentration (IC50) (at wild type NTRK1 enzyme; in test [1]; in test [2]) was less than 0.01 µM each time.
With `CN(Cc1ccccc1)C(=O)c1n[nH]c2ncnc(N[C@@H]3CC[C@@H](O)[C@H]3O)c12` [Compound 131], the IC50 (on wild type NTRK1 enzyme; in test [1]; in test [2]) was 0.1 to 1 µM each time.
On to `CN(Cc1cccc(F)c1)C(=O)c1n[nH]c2ncnc(N[C@@H]3CC[C@@H](O)[C@H]3O)c12` [Compound 132], for which the IC50 at wild type NTRK1 enzyme was in the range of 0.01 to 0.1 µM; in test [1] (Homo sapiens, KM12, 72 h), 0.01 to 0.1 µM; in test [2] (Homo sapiens, KM12, 72 h) it was 0.1 to 1 µM.
With `CN(Cc1cccnc1F)C(=O)c1n[nH]c2ncnc(N[C@@H]3CC[C@@H](O)[C@H]3O)c12` [Compound 133], the half-inhibitory concentration (IC50) (on wild type NTRK1 enzyme; in test [1]; in test [2]) was 0.1 to 1 µM in each case.
As for `CN(Cc1cccc(C#N)c1)C(=O)c1n[nH]c2ncnc(N[C@@H]3CC[C@@H](O)[C@H]3O)c12` [Compound 134], the IC50 (on wild type NTRK1 enzyme; in test [1]; in test [2]) was 0.1 to 1 µM throughout.
In the case of `CN(Cc1cc(F)cn(C)c1=O)C(=O)c1n[nH]c2ncnc(N[C@@H]3CCC[C@H]3O)c12` [Compound 136], the IC50 is less than 0.01 µM at wild type NTRK1 enzyme; 0.01 to 0.1 µM in test [1] (Homo sapiens, KM12, 72 h); 0.01 to 0.1 µM in test [2] (Homo sapiens, KM12, 72 h).
Regarding `CN(Cc1cccc(Cl)c1)C(=O)c1n[nH]c2ncnc(N[C@@H]3CC[C@@H](O)[C@H]3O)c12` [Compound 137], the IC50 (on wild type NTRK1 enzyme; in test [1]; in test [2]) was 0.01 to 0.1 µM throughout.
In the case of `CN(Cc1cccnc1Cl)C(=O)c1n[nH]c2ncnc(N[C@@H]3CC[C@@H](O)[C@H]3O)c12` [Compound 138], the IC50 (at wild type NTRK1 enzyme; in test [1]; in test [2]) was 0.1 to 1 µM in each case.
As to `CN(Cc1cccc(F)c1F)C(=O)c1n[nH]c2ncnc(N[C@@H]3CC[C@@H](O)[C@H]3O)c12` [Compound 139], the IC50 (at wild type NTRK1 enzyme; in test [1]; in test [2]) was 0.01 to 0.1 µM throughout.
Turning to `CN(Cc1cccc(C#N)c1F)C(=O)c1n[nH]c2ncnc(N[C@@H]3CC[C@@H](O)[C@H]3O)c12` [Compound 142], the IC50 at wild type NTRK1 enzyme fell in the range of 0.01 to 0.1 µM; in test [1], 0.01 to 0.1 µM; in test [2], 0.1 to 1 µM.
As for `O=C(c1n[nH]c2ncnc(N[C@@H]3CC[C@@H](O)[C@H]3O)c12)N1C[C@@H](F)C[C@@H]1c1ccccc1` [Compound 144], the IC50 on wild type NTRK1 enzyme was 0.01 to 0.1 µM; in test [1] it was 0.01 to 0.1 µM; in test [2] it was 0.1 to 1 µM.
On to `O=C(c1n[nH]c2ncnc(N[C@@H]3CCOC[C@H]3O)c12)N1C[C@@H](F)C[C@@H]1c1ccccc1` [Compound 145], for which the IC50 at wild type NTRK1 enzyme was in the range of 0.1 to 1 µM; in test [1] (Homo sapiens, KM12, 72 h) it was 0.01 to 0.1 µM; in test [2] (Homo sapiens, KM12, 72 h), 0.1 to 1 µM.
Turning to `CN(Cc1cc(F)cn(C)c1=O)C(=O)c1n[nH]c2ncnc(N[C@@H]3CC[C@@H](O)[C@H]3O)c12` [Compound 147], the IC50 fell in the range of 0.01 to 0.1 µM on wild type NTRK1 enzyme; 0.1 to 1 µM in test [1] (Homo sapiens, KM12, 72 h); 0.1 to 1 µM in test [2] (Homo sapiens, KM12, 72 h).
In the case of `CN(Cc1cc(Cl)ccc1F)C(=O)c1n[nH]c2ncnc(N[C@@H]3CC[C@@H](O)[C@H]3O)c12` [Compound 148], the IC50 at wild type NTRK1 enzyme was less than 0.01 µM; in test [1] (Homo sapiens, KM12, 72 h), less than 0.01 µM; in test [2] (Homo sapiens, KM12, 72 h), less than 0.01 µM.
Take `CN(Cc1cc(F)cnc1Cl)C(=O)c1n[nH]c2ncnc(NC3COCCC3O)c12` (stereo not drawn) [Compound 149]: the IC50 at wild type NTRK1 enzyme was less than 0.01 µM; in test [1] it was 0.01 to 0.1 µM; in test [2], 0.01 to 0.1 µM.
Turning to `CN(Cc1cc(F)cnc1Cl)C(=O)c1n[nH]c2ncnc(NC3CCOCC3O)c12` (stereo not drawn) [Compound 150], the IC50 (on wild type NTRK1 enzyme; in test [1]; in test [2]) was 0.01 to 0.1 µM throughout.
For `CN(Cc1cc(F)cnc1Cl)C(=O)c1n[nH]c2ncnc(NC3CC(F)CC3O)c12` (stereo not drawn) [Compound 151], the IC50 (on wild type NTRK1 enzyme; in test [1]; in test [2]) was 0.01 to 0.1 µM each time.
With `O=C(c1n[nH]c2ncnc(N[C@H]3[C@H](O)[C@H](O)[C@@H]4C[C@@H]43)c12)N1C[C@@H](F)C[C@@H]1c1ccccc1` [Compound 153], the IC50 (on wild type NTRK1 enzyme; in test [1]; in test [2]) was 0.01 to 0.1 µM throughout.
For the compound `O=C(c1n[nH]c2ncnc(N[C@@H]3CCC[C@@H](O)[C@H]3O)c12)N1C[C@@H](F)C[C@@H]1c1ccccc1` [Compound 155], the IC50 (at wild type NTRK1 enzyme; in test [1]; in test [2]) was 0.01 to 0.1 µM each time.
On to `CN(Cc1cc(Cl)ccc1C#N)C(=O)c1n[nH]c2ncnc(N[C@@H]3CC[C@@H](O)[C@H]3O)c12` [Compound 156, N-(5-chloro-2-cyanobenzyl)-4-(((1R,2S,3R)-2,3-dihydroxycyclopentyl)amino)-N-methyl-1H-pyrazolo[3,4-d]pyrimidine-3-carboxamide], for which the IC50 on wild type NTRK1 enzyme is 0.01 to 0.1 µM; in test [1] (Homo sapiens, KM12, 72 h), 0.01 to 0.1 µM; in test [2] (Homo sapiens, KM12, 72 h), less than 0.01 µM.
`O=C(c1n[nH]c2ncnc(N[C@@H]3CCOC[C@H]3O)c12)N1C[C@@H](F)C[C@@H]1c1cccc(F)c1` [Compound 158]: the IC50 on wild type NTRK1 enzyme was less than 0.01 µM; in test [1] (Homo sapiens, KM12, 72 h) it was 0.01 to 0.1 µM; in test [2] (Homo sapiens, KM12, 72 h) it was 0.01 to 0.1 µM.
As to `CN(Cc1cc(F)cnc1Cl)C(=O)c1n[nH]c2ncnc(N[C@H]3[C@H](O)[C@H](O)[C@@H]4C[C@@H]43)c12` [Compound 159], the IC50 was less than 0.01 µM on wild type NTRK1 enzyme; 0.01 to 0.1 µM in test [1] (Homo sapiens, KM12, 72 h); 0.01 to 0.1 µM in test [2] (Homo sapiens, KM12, 72 h).
For the compound `CC(c1cc(F)ccc1F)N(C)C(=O)c1n[nH]c2ncnc(NC3COCC(O)C3O)c12` (stereo not drawn) [Compound 160], the values for the IC50 (at wild type NTRK1 enzyme; in test [1]; in test [2]) were less than 0.01 µM, 0.01 to 0.1 µM and 0.01 to 0.1 µM, respectively.
As to `CN(Cc1cc(F)cnc1Cl)C(=O)c1n[nH]c2ncnc(N[C@@H]3CCC[C@@H](O)[C@H]3O)c12` [Compound 161], the IC50 (at wild type NTRK1 enzyme; in test [1]; in test [2]) was 0.01 to 0.1 µM each time.
Consider `CN(Cc1cc(F)ccc1Cl)C(=O)c1n[nH]c2ncnc(N[C@@H]3COC[C@@H](O)[C@H]3O)c12` [Compound 162], for which the IC50 on wild type NTRK1 enzyme is less than 0.01 µM; in test [1] (Homo sapiens, KM12, 72 h), 0.01 to 0.1 µM; in test [2] (Homo sapiens, KM12, 72 h), 0.01 to 0.1 µM.
As for `CN(Cc1cc(Cl)ccc1F)C(=O)c1n[nH]c2ncnc(N[C@@H]3COC[C@@H](O)[C@H]3O)c12` [Compound 163], the IC50 is less than 0.01 µM at wild type NTRK1 enzyme; 0.01 to 0.1 µM in test [1] (Homo sapiens, KM12, 72 h); 0.01 to 0.1 µM in test [2] (Homo sapiens, KM12, 72 h).
Turning to `CN(Cc1cc(F)cc(F)c1F)C(=O)c1n[nH]c2ncnc(N[C@@H]3COC[C@@H](O)[C@H]3O)c12` [Compound 164], the IC50 on wild type NTRK1 enzyme is 0.01 to 0.1 µM; in test [1] (Homo sapiens, KM12, 72 h), 0.01 to 0.1 µM; in test [2] (Homo sapiens, KM12, 72 h) it was 0.01 to 0.1 µM.
Take `N#C[C@H]1C[C@@H](O)[C@H](Nc2ncnc3[nH]nc(C(=O)N4C[C@@H](F)C[C@@H]4c4cncc(F)c4)c23)C1` [Compound 166]: the IC50 on wild type NTRK1 enzyme was less than 0.01 µM; in test [1] it was 0.1 to 1 µM; in test [2], 0.1 to 1 µM.
`CN(Cc1cc(Cl)ccc1Br)C(=O)c1n[nH]c2ncnc(N[C@@H]3CCC[C@@H](O)[C@H]3O)c12` [Compound 167]: the IC50 (at wild type NTRK1 enzyme; in test [1]; in test [2]) was less than 0.01 µM throughout.
Turning to `O=C(c1n[nH]c2ncnc(NC3CCCC(O)C3O)c12)N1CC(F)CC1c1cccc(F)c1` (stereo not drawn) [Compound 168], the IC50 (at wild type NTRK1 enzyme; in test [1]; in test [2]) was less than 0.01 µM each time.
As for `O=C(c1n[nH]c2ncnc(NC3COCC(O)C3O)c12)N1CC(F)CC1c1cccc(F)c1` (stereo not drawn) [Compound 169], the IC50 (at wild type NTRK1 enzyme; in test [1]; in test [2]) was 0.01 to 0.1 µM each time.
Regarding `O=C(c1n[nH]c2ncnc(N[C@@H]3C=C[C@@H](O)[C@H]3O)c12)N1C[C@@H](F)C[C@@H]1c1cc(F)ccc1F` [Compound 170], the IC50 (on wild type NTRK1 enzyme; in test [1]; in test [2]) was less than 0.01 µM in each case.
Take `O=C(c1n[nH]c2ncnc(N[C@@H]3C=C[C@@H](O)[C@H]3O)c12)N1C[C@@H](F)C[C@@H]1c1cc(F)cc(F)c1` [Compound 171]: the IC50 (on wild type NTRK1 enzyme; in test [1]; in test [2]) was 0.01 to 0.1 µM each time.
